pIC50: −log10 of the molar value.
Experiments:
DYRK1A [1] = molecular target: T1, DYRK1A (Homo sapiens, UniProt Q13627); test: in-vitro kinase assay against DYRK1A; type: biochemical; conditions: for pIC50: DYRK peptide as substrate, 10 μM ATP
Description: The inhibitory activity of Compounds 4 and 10 against DYRK1A was examined through in-vitro kinase assay (in-vitro kinase analysis).
The inhibitory activity of Compounds 4 and 10 against DYRK1A was examined in the presence of DYRK1A protein using a DYRK peptide as a substrate under the condition of 10 μM ATP.

Mouse neural stem cells = test: BrdU uptake in cultured mouse neural stem cells (Arrayscan); type: cell-based; conditions: for incorporation of BrdU into neural stem cells (ratio of BrdU-positive cells relative to control): 1.25 μM, 2.5 μM, or 5 μM
Description: Mouse neural stem cells were treated with Compound 4 or 10, and then neural stem cell proliferating activity was examined using, as an index, uptake of 5-bromo-2′-deoxyuridine (BrdU), which is a nucleoside analog to be used as a proliferation index.
Specifically, isolated neural stem cells were cultured in the presence of BrdU and Compound 4 or 10 at a concentration of 1.25 μM, 2.5 μM, or 5 μM, so that proliferating cells were labeled. After the cells were fixed, BrdU was detected by an anti-BrdU antibody, and the ratio of proliferating cells that had incorporated the BrdU was quantitatively analyzed using Arrayscan (Thermo Scientific). […] In FIG. 3, “Control” indicates the results from adding no compounds, and “Solvent” indicates dimethyl sulfoxide (DMSO).

cyclin D1 [2] = test: Western blotting of cyclin D1 expression in cultured mouse neural stem cells; type: cell-based; conditions: relative to control
Description: Mouse neural stem cells were treated with Compound 4, 6, or 10, and the expression level of cyclin D1, which positively controls cell proliferation, was examined through Western blotting. FIGS. 4A and 4B show the results. In FIGS. 4A and 4B, “Control” indicates the results from adding no compounds, and “Solvent” indicates dimethyl sulfoxide (DMSO).

DYRK1A [3] = molecular target: T1, DYRK1A; test: Western blotting of tau protein phosphorylation (threonine 212) in cultured cells expressing tau protein and DYRK1A protein; type: cell-based; conditions: 0.3 μM, 1 μM, 3 μM, or 10 μM; antibody to phosphorylated threonine 212 of tau
Description: Tau protein, which is a substrate of a target kinase, was overexpressed in cells in the presence of Compound 4 or 10 at a concentration of 0.3 μM, 1 μM, 3 μM, or 10 μM, and the inhibitory activity of Compounds 4 and 10 was examined using the phosphorylation of the tau protein as an index.
FIG. 2 is an example of the result of Western blotting analysis of cultured cells in which the expression of both tau protein and DYRK1A protein was induced in the presence of Compound 4 or 10 at a concentration of 0.3 μM, 1 μM, 3 μM, or 10 μM, using an antibody that specifically recognizes the phosphorylated threonine residue at 212-position of tau protein was used to analyze.

cyclin D1 [4] = test: Western blotting of cyclin D1 expression in HEK293 cells over time; type: cell-based; conditions: treated over time
Description: HEK293 cells were treated with Compound 4 or 10 over time, and the expression level of cyclin D1 was examined through Western blotting.

Down syndrome model mice = test: learning and memory tests (Y maze, Barnes maze, fear conditioning) after prenatal administration; type: in vivo, mouse; conditions: 10 mg/kg oral once a day to pregnant mice from tenth day of fetal life until birth; tested at 8 weeks
Description: Compound 4 (10 mg/kg) or a solvent was orally administered to pregnant mice carrying Down syndrome model mice once a day from the tenth day of fetal life until birth. After birth, at the age of 8 weeks, three types of tests (A. Y maze test for spontaneous alteration behavior, B. Barnes maze test for spatial memory, and C. fear conditioning test) were performed successively. FIGS. 8A to 8C show the results. In FIGS. 8A to 8C, “Solvent” indicates the results from adding no compound.

[5] = tested on: Facial nerve palsy model mice; test: facial nerve palsy model, paralysis scores; type: in vivo, ICR mouse; conditions: 10 mg/kg every day from an hour before the operation
Description: A facial nerve trunk (3 mm) of a rodent (ICR mouse; 6 to 8 weeks old) was extracted and compressed using a Mosquito forceps with a width of 1 mm for 30 seconds. Facial nerve palsy model mice were thus produced. Compound 4 (10 mg/kg) was administered every day from an hour before the operation (day 0), and paralysis scores relating to nictitation (“no eye-opening” to “cured”), a nose (“extended” to “cured”), and whiskers (“no movement” to “cured”) were evaluated according to four levels. […] In FIG. 9A, “Solvent” indicates the results from adding no compound.

[6] = tested on: fibroblasts derived from human skin; test: flow cytometry cell cycle analysis of fibroblasts derived from human skin; type: cell-based; conditions: 48 hours treatment
Description: Next, fibroblasts derived from human skin were treated with a solvent or Compound 4 for 48 hours, and the cell cycle was analyzed through flow cytometry. […] It is considered that this is because Compound 4 stabilized cyclin D1 and thus stimulated the progression of the cell cycle from the G1 phase to the subsequent S phase and G2/M phase.

[7] = tested on: Down syndrome model mice (fetus); test: thickness of the cerebral cortex of Down syndrome model fetuses after oral administration to pregnant mice; type: in vivo, mouse; conditions: tenth to fifteenth day of fetal life
Description: Moreover, Compound 4 was orally administered to pregnant mice carrying Down syndrome model mice from the tenth day to fifteenth day of fetal life, and the thickness of the cerebral cortex was measured at the fifteenth day of fetal life. […] In FIGS. 7A and 7B, “Solvent” indicates the results from adding no compound.

[8] = tested on: zebrafish spinal cord injury; test: zebrafish spinal cord injury model, migration distance by behavior analysis; type: in vivo; conditions: in breeding water, sixth to eighth day after fertilization
Text: On the fifth day after fertilization, the zebrafish spinal cord was injured using an ophthalmic scalpel, and the zebrafish was bred in breeding water containing Compound 4 until the eighth day after fertilization.

[9] = tested on: neural stem cells isolated Down syndrome model mice (Ts1Cje); test: proliferation (BrdU-positive ratio) of neural stem cells from Down syndrome model mice; type: cell-based, mouse; conditions: Ts1Cje versus wild-type
Description: Neural stem cells were prepared from wild-type mice and Down syndrome model mice (Ts1Cje: the same applies hereinafter), and the effect of Compound 4 on the proliferation of neural stem cells isolated Down syndrome model mice was examined. […] In FIG. 6, “Solvent” indicates the results from no adding compound.

[10] = tested on: neural stem cells present in the dentate gyrus of the hippocampus; test: neurogenesis in the dentate gyrus of the hippocampus after 10-day administration; type: in vivo, rodent; conditions: versus solvent administered group
Description: After 10-day long administration of Compound 4 to a rodent, BrdU was administered thereto, and the number of proliferating cells was quantitatively evaluated. […] In FIGS. 5B and 5C, “Solvent” indicates the results from adding no compound. FIG. 5A is a representative images of thin sections of the dentate gyrus of the hippocampus, and the image of Dapi staining (nucleus staining), the image of doublecortin (DCX) staining, and the image of BrdU staining are shown in the order from top to bottom. FIG. 5B is an example of a graph showing the number of BrdU-positive cells in the dentate gyrus of the hippocampus. FIG. 5C is an example of a graph showing the number of immature neurons in the dentate gyrus of the hippocampus as a relative value determined based on the result from the solvent sample taken as 1.

[11] = tested on: Down syndrome model mice (Ts1Cje); test: neurogenesis in the dentate gyrus of the hippocampus of Down syndrome model mice; type: in vivo, mouse; conditions: 8-week old Down syndrome model mice
Description: First, a solvent or Compound 4 was administered to 8-week old wild-type mice and 8-week old Down syndrome model mice, and the effect on neurogenesis in the dentate gyrus of the hippocampus was examined.

SMILES	melting point	pIC50 (DYRK1A [1])	incorporation of BrdU into neural stem cells (ratio of BrdU-positive cells relative to control) (Mouse neural stem cells)	expression level of cyclin D1 (cyclin D1 [2])	inhibitory effect against the phosphorylation of tau protein (DYRK1A [3])	protein level of cyclin D1 (cyclin D1 [4])	further results
c1cc(-c2ccc3[nH]ncc3c2)c2cccnc2c1 [Compound 1, 5-(5-Quinolyl)indazole]	255 °C (dec.)	–	–	–	–	–	–
c1cnc2ccc(-c3ccncc3)cc2c1 [Compound 10]	–	7.22	increased the amount of incorporation of BrdU	significantly high	exhibited a high inhibitory effect	increased (i.e. the cyclin D1 was stabilized) in a treatment time dependent manner	–
c1ccc2c(-c3ccc4[nH]ncc4c3)cncc2c1 [Compound 6]	–	–	–	significantly high	showed the same tendency as Compounds 4 and 10	–	inhibitory activity against DYRK1A (DYRK1A [1]; same experiment as Compounds 4 and 10): lower than that of Compounds 4 and 10; proliferation of cultured neural stem cells (Mouse neural stem cells; 2.5 μM and 5 μM): promoted the proliferation of cultured neural stem cells
c1cncc(Nc2cccc3ncccc23)c1 [Compound 8, 5-(3-Pyridylamino)quinoline]	180 °C (dec.)	–	–	–	–	–	–
c1cncc(-c2ccc3[nH]ncc3c2)c1 [Compound 4]	–	7.25	increased the amount of incorporation of BrdU	significantly high	exhibited a high inhibitory effect	increased (i.e. the cyclin D1 was stabilized) in a treatment time dependent manner	cognitive function (Y maze, Barnes maze, fear conditioning tests) (Down syndrome model mice): improved the cognition function; paralysis scores (nictitation, nose, whiskers) [5]: tended to promote recovery; ratio of cell in the G2/M phase of the cell cycle [6]: increased; ratio of cells in the G1 phase of the cell cycle [6]: decreased; thickness of cortical layers [7]: compensated for the cerebral cortex with a reduced thickness; migration distance after spinal cord injury [8]: migration distance was recovered; ratio of BrdU-positive cells in neural stem cells from Down syndrome model mice [9]: compensated for the reduced proliferation; number of immature neurons in the dentate gyrus of the hippocampus [10]: significantly larger; number of proliferating cells (BrdU-positive) in the dentate gyrus of the hippocampus [10]: significantly larger; number of proliferating cells in dentate gyrus of the hippocampus [11]: compensated for the reduced neurogenesis

From patent US11318126B2, “Composition for activating neurogenesis” (KYOTO UNIVERSITY, priority 2016, dated 2022)
